Key:
[1] = system: Plasma; test: Biodistribution in orally dosed Sprague-Dawley rat plasma assessed as 17-hydroxy-O-demethyl muraglitazar level after 12 hrs by LC/MS analysis; format: ADME, organism-based; settings: in vivo, po
[2] = Drug concentration in bile duct-cannulated CD1 mouse urine assessed as recovery of radioactive dose at 40 mg/kg, po after 24 hrs; format: ADME, organism-based; design: dose 40 mg/kg, route oral; settings: in vivo
[3] = system: Plasma; test: Biodistribution in orally dosed cynomolgus monkey plasma assessed as 12,17-dihydroxy muraglitazar level after 12 hrs by LC/MS analysis; format: ADME, organism-based, Macaca fascicularis; settings: in vivo, po
[4] = system: Homo sapiens; test: AUC (0 to T) in human at 10 mg, po after 72 hrs; format: ADME, organism-based, Plasma; design: dose 10 mg, time < 72 hr, route oral; settings: in vivo
[5] = Biodistribution in orally dosed human feces assessed as 8,12-dihydroxy muraglitazar level by LC/MS analysis; format: ADME, organism-based; settings: in vivo, po
[6] = Metabolic stability in CD1 mouse hepatocytes assessed as 9-hydroxy-O-demethyl muraglitazar level by LC/MS analysis relative to control; format: ADME, cell-based, Hepatocyte
[7] = Biodistribution in orally dosed human urine assessed as O-dealkyl muraglitazar level by LC/MS analysis; format: ADME, organism-based; settings: in vivo, po
[8] = system: Plasma; test: Biodistribution in orally dosed Sprague-Dawley rat plasma assessed as O-demethyl muraglitazar level after 4 hrs by LC/MS analysis; format: ADME, organism-based; settings: in vivo, po
[9] = system: Rattus norvegicus; test: Biodistribution in orally dosed Sprague-Dawley rat urine assessed as 8-hydroxy-O-demethyl muraglitazar level by LC/MS analysis; format: ADME, organism-based; settings: in vivo, po
[10] = system: Plasma; test: Biodistribution in orally dosed human plasma assessed as 12-dihydroxy muraglitazar level after 12 hrs by LC/MS analysis; format: ADME, organism-based; settings: in vivo, po
[11] = Metabolic stability in CD1 mouse hepatocytes assessed as 12-hydroxy muraglitazar level by LC/MS analysis relative to control; format: ADME, cell-based, Hepatocyte
[12] = Bile excretion of compound in bile duct-cannulated orally dosed Sprague-Dawley rat within 24 hrs; format: ADME, organism-based; settings: po, read-out: Activity
[13] = Drug concentration in Beagle dog urine at 2 mg/kg, po after 24 hrs; format: ADME, organism-based, Canis lupus familiaris; design: dose 2 mg/kg, route oral; settings: read-out: Drug uptake
[14] = system: Plasma; test: Biodistribution in orally dosed human plasma assessed as 12-dihydroxy muraglitazar level after 4 hrs by LC/MS analysis; format: ADME, organism-based; settings: in vivo, po
[15] = Biodistribution in orally dosed human feces assessed as 8-hydroxy muraglitazar level by LC/MS analysis; format: ADME, organism-based; settings: in vivo, po
[16] = system: Hepatocyte; test: Metabolic stability in human hepatocytes assessed as O-dealkyl-O-demethyl muraglitazar level by LC/MS analysis relative to control; format: ADME, cell-based
[17] = system: Plasma; test: Biodistribution in orally dosed Sprague-Dawley rat plasma assessed as 12,17-dihydroxy muraglitazar level after 12 hrs by LC/MS analysis; format: ADME, organism-based; settings: in vivo, po
[18] = Metabolic stability in CD1 mouse hepatocytes assessed as O-demethyl muraglitazar level by LC/MS analysis relative to control; format: ADME, cell-based, Hepatocyte
[19] = system: Plasma; test: Biodistribution in orally dosed cynomolgus monkey plasma assessed as muraglitazar glucuronide level after 1 hr by LC/MS analysis; format: ADME, organism-based, Macaca fascicularis; settings: in vivo, po
[20] = system: Hepatocyte; test: Metabolic stability in Sprague-Dawley rat hepatocytes assessed as 9-hydroxy-O-demethyl muraglitazar level by LC/MS analysis relative to control; format: ADME, cell-based
[21] = Drug concentration in bile duct-cannulated cynomolgus monkey bile at 5 mg/kg, po after 48 hrs; format: ADME, organism-based, Macaca fascicularis; design: dose 5 mg/kg, route oral; settings: in vivo
[22] = system: Hepatocyte; test: Metabolic stability in Sprague-Dawley rat hepatocytes assessed as radioactivity recovaries at 25.6 ug/mL after 4 hrs; format: ADME, cell-based
[23] = Biodistribution in orally dosed cynomolgus monkey feces assessed as muraglitazar 12-carboxylic acid level by LC/MS analysis; format: ADME, organism-based, Macaca fascicularis; settings: in vivo, po
[24] = system: Hepatocyte; test: Metabolic stability in human hepatocytes assessed as 17-hydroxy-O-demethyl muraglitazar level by LC/MS analysis relative to control; format: ADME, cell-based
[25] = system: Hepatocyte; test: Metabolic stability in human hepatocytes assessed as hydroxyl-O-demethyl muraglitazar glucuronide level by LC/MS analysis relative to control; format: ADME, cell-based
[26] = Metabolic stability in CD1 mouse hepatocytes assessed as O-Dealkyl muraglitazar level by LC/MS analysis relative to control; format: ADME, cell-based, Hepatocyte
[27] = system: Hepatocyte; test: Metabolic stability in Sprague-Dawley rat hepatocytes assessed as O-demethyl muraglitazar level by LC/MS analysis relative to control; format: ADME, cell-based
[28] = Fecal excretion rate in orally dosed Sprague-Dawley rat within 48 hrs; format: ADME, organism-based; settings: faeces, po, read-out: Activity
[29] = system: Hepatocyte; test: Metabolic stability in human hepatocytes assessed as di-oxygenated muraglitazar level by LC/MS analysis relative to control; format: ADME, cell-based
[30] = system: Rattus norvegicus; test: Biodistribution in orally dosed Sprague-Dawley rat urine assessed as 8-hydroxy muraglitazar level by LC/MS analysis; format: ADME, organism-based; settings: in vivo, po
[31] = Tmax in human at 10 mg, po after 72 hrs; format: ADME, organism-based; settings: in vivo
[32] = system: Rattus norvegicus; test: Biodistribution in orally dosed Sprague-Dawley rat feces assessed as O-demethyl muraglitazar level by LC/MS analysis; format: ADME, organism-based; settings: in vivo, po
[33] = Metabolic stability in cynomolgus monkey hepatocytes assessed as 9-hydroxy-O-demethyl muraglitazar level by LC/MS analysis relative to control; format: ADME, cell-based, Macaca fascicularis, Hepatocyte
[34] = Biodistribution in orally dosed human feces assessed as acetylimide derivative of muraglitazar level by LC/MS analysis; format: ADME, organism-based; settings: in vivo, po
[35] = Metabolic stability in CD1 mouse hepatocytes assessed as O-dealkyl-O-demethyl muraglitazar level by LC/MS analysis relative to control; format: ADME, cell-based, Hepatocyte
[36] = Drug concentration in bile duct-cannulated CD1 mouse bile assessed as recovery of radioactive dose at 1 mg/kg, po after 24 hrs; format: ADME, organism-based; design: dose 1 mg/kg, route oral; settings: in vivo
[37] = Biodistribution in orally dosed human feces assessed as imide derivative of muraglitazar level by LC/MS analysis; format: ADME, organism-based; settings: in vivo, po
[38] = system: Rattus norvegicus; test: Biodistribution in orally dosed Sprague-Dawley rat feces assessed as O-dealkyl muraglitazar level by LC/MS analysis; format: ADME, organism-based; settings: in vivo, po
[39] = system: Rattus norvegicus; test: Biodistribution in orally dosed Sprague-Dawley rat urine assessed as 12-hydroxy muraglitazar level by LC/MS analysis; format: ADME, organism-based; settings: in vivo, po
[40] = system: Rattus norvegicus; test: Biodistribution in orally dosed Sprague-Dawley rat urine assessed as 12-hydroxy-O-demethyl muraglitazar level by LC/MS analysis; format: ADME, organism-based; settings: in vivo, po
[41] = Drug concentration in bile duct-cannulated CD1 mouse bile at 40 mg/kg, po after 24 hrs; format: ADME, organism-based; design: dose 40 mg/kg, route oral; settings: read-out: Drug uptake
[42] = Biodistribution in orally dosed cynomolgus monkey urine assessed as 17-hydroxy-O-demethyl muraglitazar level by LC/MS analysis; format: ADME, organism-based, Macaca fascicularis; settings: in vivo, po
[43] = Biodistribution in orally dosed Beagle dog feces assessed as 9,12-dihydroxy muraglitazar level by LC/MS analysis; format: ADME, organism-based, Canis lupus familiaris; settings: in vivo, po
[44] = system: Plasma; test: Biodistribution in orally dosed human plasma assessed as muraglitazar glucuronide level after 4 hrs by LC/MS analysis; format: ADME, organism-based; settings: in vivo, po

`COc1ccc(OC(=O)N(CC(=O)O)Cc2ccc(OCCc3nc(-c4ccccc4)oc3C)cc2)cc1` [MURAGLITAZAR] gave a Drug uptake [1] of under 0.05%, a Drug uptake [2] of 16.1% and a Drug uptake [3] of 1%. The AUC [4] was 9 ugequiv.h/ml, the Drug uptake [5] was 2.83% and the Drug uptake [6] was 1.2%. For the same molecule, the Drug uptake [7] was 0.06%, the Drug uptake [8] was 2.1% and the Drug uptake [9] was 0.05%. The Drug uptake [10] was 1%, the Drug uptake [11] was 11% and the dose excreted at 24 h [12] was 65%. It also gave a dose excreted at 24 h [13] of 0.49%, a Drug uptake [14] of 1% and a Drug uptake [15] of 0.56%. For the same molecule, the Drug uptake [16] was under 0.2%, the Drug uptake [17] was under 0.05% and the Drug uptake [18] was 1.2%. For the same molecule, the Drug uptake [19] was 0.1%, the Drug uptake [20] was under 0.2% and the Drug uptake [21] was 0.007 mgequiv/ml. The Stability [22] was 96.5%, the Drug uptake [23] was 1.61% and the Drug uptake [24] was 1.6%. It also gave a Drug uptake [25] of under 0.2%, a Drug uptake [26] of 23.6% and a Drug uptake [27] of 2.2%. It also gave a dose excreted at 48 h [28] of 95%, a Drug uptake [29] of 4.5% and a Drug uptake [30] of under 0.01%. The Tmax [31] was 1 h, the Drug uptake [32] was 34.2% and the Drug uptake [33] was 0.5%. For the same molecule, the Drug uptake [34] was 3.21%, the Drug uptake [35] was 5.7% and the Drug uptake [36] was 75%. For the same molecule, the Drug uptake [37] was 2.46%, the Drug uptake [38] was 1.75% and the Drug uptake [39] was 0.03%. It also gave a Drug uptake [40] of 0.01%, a dose excreted at 24 h [41] of 13.2% and a Drug uptake [42] of 0.01%. The Drug uptake [43] was 0.34% and the Drug uptake [44] was 4.2%.

From ChEMBL document CHEMBL1147043, “Comparative metabolism of radiolabeled muraglitazar in animals and humans by quantitative and qualitative metabolite profiling” (Drug Metab Dispos, 2007)
